{"source": "patent US20230056935A1", "about": "“Compound, Antimicrobial Deodorant Composition Comprising Same, and Method for Producing Same” (LG Chem, Ltd., priority 2020, published 2023)", "key": {"[1]": {"test": "Deodorizing property evaluation (SPME, GC/MS peak area)", "settings": "total 80 mg", "experimental": "To a test solution including the compound in 1 phr to 20 phr with respect to a total weight of 80 mg of a super absorbent polymer and the compound, 20 mL of a malodorous solution is introduced, isovaleraldehyde is adsorbed using a solid-phase microextraction method, and a GC/MS peak area of the adsorbed isovaleraldehyde is analyzed through a GC/MS analysis. For a control solution prepared in the same manner except that the compound is not introduced in the test solution, a GC/MS peak area of isovaleraldehyde is analyzed in the same manner, and, using the GC/MS peak area values of the test solution and the control solution, a deodorization rate is calculated according to the following Mathematical Formula 2.\nCompound 1 prepared in Preparation Example 1 was introduced to a vial in a content as described in the following Table 2, and after introducing a super absorbent polymer (LG Chem., GS-301N) thereto so that a total content of the super absorbent polymer and Compound 1 becomes 80 mg, a malodorous solution (20 mL) was introduced thereto to prepare a test solution. As the malodorous solution, a solution in which diacetyl (242 ug/mL), isovaleraldehyde (49 ug/mL), dimethyl disulfide (30 ug/mL), dimethyl trisulfide (26 ug/mL) and p-cresol (2508 ug/mL) are mixed was 1/1000 diluted using an aqueous sodium chloride solution (0.9% by weight) and used. Volatile substances generated in the test solution was adsorbed using a solid-phase microextraction method (SPME), and through a GC/MS analysis, GC/MS peak areas of the adsorbed malodorous substances (diacetyl, isovaleraldehyde, dimethyl disulfide, dimethyl trisulfide and p-cresol) were each analyzed. For a control solution prepared in the same manner except that Compound 1 was not included, peak areas of the malodorous substances were analyzed in the same manner, and deodorization rates thereof were each calculated according to the following Mathematical Formula 2.\n(Cs: GC/MS peak areas of malodorous substances test solution, C0: GC/MS peak areas of malodorous substances of control solution)"}, "[2]": {"test_system": "Proteus mirabilis (ATCC 29906)", "test": "Antibacterial property evaluation, bacterial growth inhibition (absorbance at 600 nm)", "assay_type": "cell-based", "settings": "16 hours at 35° C.; for Absorbance: 600 nm", "experimental": "(§1) After introducing 1 mg to 200 mg of the compound to a nutrient broth culture medium (25 ml) inoculated with bacteria 3000±300 CFU/ml, the result is incubated for 16 hours at 35° C. in a shaking incubator to prepare a test culture medium. A control culture medium is prepared in the same manner except that the compound is not introduced in the test culture medium. For the test culture medium and the control culture medium, absorbance at a wavelength of 600 nm is measured using a UV-Vis spectrophotometer, and using the measured absorbance value, a bacterial growth inhibition rate (%) is calculated according to the following Mathematical Formula 1.\n(§2) To a nutrient broth culture medium (25 ml) inoculated with Proteus mirabilis (ATCC 29906) or E. coli (ATCC 25922) 3000±300 CFU/ml, Compound 1 prepared in Preparation Example 1 was introduced in a content as described in the following Table 1, and the result was incubated for 16 hours at 35° C. in a shaking incubator to prepare a test culture medium. As a control, a control culture medium was prepared in the same manner except that the compound was not introduced in the test culture medium. For the test culture medium and the control culture medium, absorbance at a wavelength of 600 nm was measured using a UV-Vis spectrophotometer. Using the measurement results, a bacterial growth inhibition rate (%) was calculated according to the following Mathematical Formula 1.\n(§3) (As: absorbance of test culture medium, A0: absorbance of control culture medium)"}, "[3]": {"test_system": "E. coli (ATCC 25922)", "test": "Antibacterial property evaluation, bacterial growth inhibition (absorbance at 600 nm)", "assay_type": "cell-based", "settings": "Escherichia coli, 16 hours at 35° C.; for Absorbance: 600 nm", "experimental": "as §1, §2, §3"}, "[4]": {"settings": "1 phr of Compound 1 with super absorbent polymer"}, "[5]": {"settings": "2 phr of Compound 1 with super absorbent polymer"}, "[6]": {"settings": "5 phr of Compound 1 with super absorbent polymer"}, "[7]": {"settings": "8 phr of Compound 1 with super absorbent polymer"}, "[8]": {"settings": "10 phr of Compound 1 with super absorbent polymer"}, "[9]": {"settings": "content 20 mg in 25 ml nutrient broth"}, "[10]": {"settings": "content 50 mg in 25 ml nutrient broth"}, "[11]": {"settings": "content 100 mg in 25 ml nutrient broth"}}}
{"smiles": "C=CC(=O)OCCC1CCCCN1C(=O)OC(C)CC", "note": "(stereo not shown) [Compound 1]", "values": [{"measurement": "Deodorization rate (%) for Diacetyl", "setting": "[1]; [4]", "result": 79, "unit": "%"}, {"measurement": "Deodorization rate (%) for Dimethyl Disulfide", "setting": "[1]; [4]", "result": 65, "unit": "%"}, {"measurement": "Deodorization rate (%) for Dimethyl Trisulfide", "setting": "[1]; [4]", "result": 16, "unit": "%"}, {"measurement": "Deodorization rate (%) for Isovaleraldehyde", "setting": "[1]; [4]", "result": 87, "unit": "%"}, {"measurement": "Deodorization rate (%) for p-Cresol", "setting": "[1]; [4]", "result": 2, "unit": "%"}, {"measurement": "Deodorization rate (%) for Diacetyl", "setting": "[1]; [5]", "result": 86, "unit": "%"}, {"measurement": "Deodorization rate (%) for Dimethyl Disulfide", "setting": "[1]; [5]", "result": 76, "unit": "%"}, {"measurement": "Deodorization rate (%) for Dimethyl Trisulfide", "setting": "[1]; [5]", "result": 27, "unit": "%"}, {"measurement": "Deodorization rate (%) for Isovaleraldehyde", "setting": "[1]; [5]", "result": 92, "unit": "%"}, {"measurement": "Deodorization rate (%) for p-Cresol", "setting": "[1]; [5]", "result": 20, "unit": "%"}, {"measurement": "Deodorization rate (%) for Diacetyl", "setting": "[1]; [6]", "result": 91, "unit": "%"}, {"measurement": "Deodorization rate (%) for Dimethyl Disulfide", "setting": "[1]; [6]", "result": 84, "unit": "%"}, {"measurement": "Deodorization rate (%) for Dimethyl Trisulfide", "setting": "[1]; [6]", "result": 61, "unit": "%"}, {"measurement": "Deodorization rate (%) for Isovaleraldehyde", "setting": "[1]; [6]", "result": 94, "unit": "%"}, {"measurement": "Deodorization rate (%) for p-Cresol", "setting": "[1]; [6]", "result": 37, "unit": "%"}, {"measurement": "Deodorization rate (%) for Diacetyl", "setting": "[1]; [7]", "result": 92, "unit": "%"}, {"measurement": "Deodorization rate (%) for Dimethyl Disulfide", "setting": "[1]; [7]", "result": 88, "unit": "%"}, {"measurement": "Deodorization rate (%) for Dimethyl Trisulfide", "setting": "[1]; [7]", "result": 72, "unit": "%"}, {"measurement": "Deodorization rate (%) for Isovaleraldehyde", "setting": "[1]; [7]", "result": 95, "unit": "%"}, {"measurement": "Deodorization rate (%) for p-Cresol", "setting": "[1]; [7]", "result": 46, "unit": "%"}, {"measurement": "Deodorization rate (%) for Diacetyl", "setting": "[1]; [8]", "result": 93, "unit": "%"}, {"measurement": "Deodorization rate (%) for Dimethyl Disulfide", "setting": "[1]; [8]", "result": 88, "unit": "%"}, {"measurement": "Deodorization rate (%) for Dimethyl Trisulfide", "setting": "[1]; [8]", "result": 76, "unit": "%"}, {"measurement": "Deodorization rate (%) for Isovaleraldehyde", "setting": "[1]; [8]", "result": 95, "unit": "%"}, {"measurement": "Deodorization rate (%) for p-Cresol", "setting": "[1]; [8]", "result": 61, "unit": "%"}, {"measurement": "Bacterial Growth Inhibition Rate (%)", "setting": "[2]; [9]", "result": 55.6, "unit": "%"}, {"measurement": "Absorbance", "setting": "[2]; [9]", "result": 0.059}, {"measurement": "Bacterial Growth Inhibition Rate (%)", "setting": "[2]; [10]", "result": 91.7, "unit": "%"}, {"measurement": "Absorbance", "setting": "[2]; [10]", "result": 0.011}, {"measurement": "Bacterial Growth Inhibition Rate (%)", "setting": "[2]; [11]", "result": 89.5, "unit": "%"}, {"measurement": "Absorbance", "setting": "[2]; [11]", "result": 0.014}, {"measurement": "Bacterial Growth Inhibition Rate (%)", "setting": "[3]; [9]", "result": 62.9, "unit": "%"}, {"measurement": "Absorbance", "setting": "[3]; [9]", "result": 0.063}, {"measurement": "Bacterial Growth Inhibition Rate (%)", "setting": "[3]; [10]", "result": 92.4, "unit": "%"}, {"measurement": "Absorbance", "setting": "[3]; [10]", "result": 0.013}, {"measurement": "Bacterial Growth Inhibition Rate (%)", "setting": "[3]; [11]", "result": 88.8, "unit": "%"}, {"measurement": "Absorbance", "setting": "[3]; [11]", "result": 0.019}]}
